Test results taken from patent publication US20130029928A1 (priority 2010, published 2013).
Read-outs that look alike come from different tables or passages of the source.

Experiment: Phase I study CXR1002-001: plasma pharmacokinetics (LC-MS/MS)
Type: in vivo, human
Details: human, plasma, oral, person, plasma, read-out: Concentration; for concentration at 336 h: 336 hr (Day 15); for concentration at 360 h: 360 hr (Day 16); for concentration at 504 h: 504 hr (Day 22); for concentration at 528 h: 528 hr (Day 23); for concentration at 672 h: 672 hr (Day 29); for concentration at 696 h: 696 hr (Day 30); for concentration at 840 h: 840 hr (Day 36); for concentration at 864 h: 864 hr (Day 37); for concentration at 24 h: 24 hr (Day 2); for concentration at 168 h: 168 hr (Day 8)
Description: PK samples, PD (fasting) samples, blood glucose, and blood triglyceride samples, were taken over a 6-week period.
Dose limiting toxicity (DLT) will be based on the toxicity assessments over the first 3-week period of the repeat dosing schedule. PK samples (single blood sample) were taken on the following basis: • Every 6 weeks during the repeat dosing phase • If dosing is interrupted or stopped, samples will be taken at intervals according to patient convenience • PK sampling for safety evaluation may take place at any time, as clinically indicated
Plasma samples were collected after the single 50 mg dose at the following timepoints: Pre-dose, and then 0.25, 0.5, 0.75, 1, 1.5, 2, 3, 4, 6, 24, 48, and 72 hours after administration and then once weekly at weeks 2, 3, 4, 5, and 6 (days 8, 15, 22, 29, and 36). For patients treated with the weekly repeat dose, plasma samples were collected at the following timepoints: Pre-dose and then 2, 3, 4 and 24 hours after administration for a total of 6 weeks. Thereafter a single sample was collected every 6 weeks for monitoring of exposure during long term treatment. Plasma samples were processed at site and stored at −80° C. prior to batch shipment to the analytical laboratory.

O=C(O)C(F)(F)C(F)(F)C(F)(F)C(F)(F)C(F)(F)C(F)(F)C(F)(F)F [CXR1002]
concentration at 192 h (600 mg, Patient 021, 600 mg, 192 hr (Day 9)): 479 µM | concentration at 336 h (600 mg, Patient 021, 600 mg): 412 µM | concentration at 338 h (600 mg, Patient 021, 600 mg): 650 µM | concentration at 339 h (600 mg, Patient 021, 600 mg): 653 µM | concentration at 340 h (600 mg, Patient 021, 600 mg): 633 µM | concentration at 360 h (600 mg, Patient 021, 600 mg): 604 µM | concentration at 504 h (600 mg, Patient 021, 600 mg): 605 µM | concentration at 506 h (600 mg, Patient 021, 600 mg): 734 µM | concentration at 507 h (600 mg, Patient 021, 600 mg): 654 µM | concentration at 508 h (600 mg, Patient 021, 600 mg): 722 µM | concentration at 528 h (600 mg, Patient 021, 600 mg): 678 µM | concentration at 672 h (600 mg, Patient 021, 600 mg): 613 µM | concentration at 674 h (600 mg, Patient 021, 600 mg): 681 µM | concentration at 675 h (600 mg, Patient 021, 600 mg): 847 µM | concentration at 676 h (600 mg, Patient 021, 600 mg): 845 µM | concentration at 696 h (600 mg, Patient 021, 600 mg): 799 µM | concentration at 840 h (600 mg, Patient 021, 600 mg): 779 µM | concentration at 842 h (600 mg, Patient 021, 600 mg): 968 µM | concentration at 843 h (600 mg, Patient 021, 600 mg): 928 µM | concentration at 844 h (600 mg, Patient 021, 600 mg): 981 µM | concentration at 864 h (600 mg, Patient 021, 600 mg): 995 µM | concentration at 2 h (600 mg, Patient 022, 600 mg): 193 µM | concentration at 3 h (600 mg, Patient 022, 600 mg): 196 µM | concentration at 4 h (600 mg, Patient 022, 600 mg): 199 µM | concentration at 24 h (600 mg, Patient 022, 600 mg): 157 µM | concentration at 168 h (600 mg, Patient 022, 600 mg): 143 µM | concentration at 170 h (600 mg, Patient 022, 600 mg): 310 µM | concentration at 171 h (600 mg, Patient 022, 600 mg): 270 µM | concentration at 172 h (600 mg, Patient 022, 600 mg): 276 µM | concentration at 192 h (600 mg, Patient 022, 600 mg, 192 hr (day 9)): 298 µM | concentration at 336 h (600 mg, Patient 022, 600 mg): 289 µM | concentration at 338 h (600 mg, Patient 022, 600 mg): 433 µM | concentration at 339 h (600 mg, Patient 022, 600 mg): 433 µM | concentration at 340 h (600 mg, Patient 022, 600 mg): 405 µM | concentration at 360 h (600 mg, Patient 022, 600 mg): 427 µM | concentration at 504 h (600 mg, Patient 022, 600 mg): 426 µM | concentration at 506 h (600 mg, Patient 022, 600 mg): 441 µM | concentration at 507 h (600 mg, Patient 022, 600 mg): 562 µM | concentration at 508 h (600 mg, Patient 022, 600 mg): 519 µM | concentration at 528 h (600 mg, Patient 022, 600 mg): 596 µM | concentration at 2 h (600 mg, Patient 023, 600 mg): 208 µM | concentration at 3 h (600 mg, Patient 023, 600 mg): 233 µM | concentration at 4 h (600 mg, Patient 023, 600 mg): 236 µM | concentration at 24 h (600 mg, Patient 023, 600 mg): 221 µM | concentration at 168 h (600 mg, Patient 023, 600 mg): 204 µM | concentration at 170 h (600 mg, Patient 023, 600 mg): 336 µM | concentration at 171 h (600 mg, Patient 023, 600 mg): 337 µM | concentration at 172 h (600 mg, Patient 023, 600 mg): 391 µM | concentration at 192 h (600 mg, Patient 023, 600 mg, 192 hr (day 9)): 400 µM | concentration at 336 h (600 mg, Patient 023, 600 mg): 432 µM | concentration at 338 h (600 mg, Patient 023, 600 mg): 495 µM | concentration at 339 h (600 mg, Patient 023, 600 mg): 613 µM | concentration at 340 h (600 mg, Patient 023, 600 mg): 636 µM | concentration at 360 h (600 mg, Patient 023, 600 mg): 616 µM | concentration at 2 h (600 mg, Patient 024, 600 mg): 91.6 µM | concentration at 3 h (600 mg, Patient 024, 600 mg): 188 µM | concentration at 4 h (600 mg, Patient 024, 600 mg): 283 µM | concentration at 24 h (600 mg, Patient 024, 600 mg): 258 µM | concentration at 168 h (600 mg, Patient 024, 600 mg): 212 µM | concentration at 170 h (600 mg, Patient 024, 600 mg): 436 µM | concentration at 171 h (600 mg, Patient 024, 600 mg): 441 µM | concentration at 172 h (600 mg, Patient 024, 600 mg): 439 µM | concentration at 192 h (600 mg, Patient 024, 600 mg, 192 hr (Day 9)): 418 µM | concentration at 336 h (600 mg, Patient 024, 600 mg): 488 µM | concentration at 338 h (600 mg, Patient 024, 600 mg): 578 µM | concentration at 339 h (600 mg, Patient 024, 600 mg): 533 µM | concentration at 340 h (600 mg, Patient 024, 600 mg): 628 µM | concentration at 360 h (600 mg, Patient 024, 600 mg): 647 µM | concentration at 504 h (600 mg, Patient 024, 600 mg): 691 µM | concentration at 506 h (600 mg, Patient 024, 600 mg): 642 µM | concentration at 507 h (600 mg, Patient 024, 600 mg): 706 µM | concentration at 508 h (600 mg, Patient 024, 600 mg): 630 µM | concentration at 528 h (600 mg, Patient 024, 600 mg): 859 µM | concentration at 672 h (600 mg, Patient 024, 600 mg): 788 µM | concentration at 674 h (600 mg, Patient 024, 600 mg): 694 µM | concentration at 675 h (600 mg, Patient 024, 600 mg): 779 µM | concentration at 676 h (600 mg, Patient 024, 600 mg): 780 µM | concentration at 696 h (600 mg, Patient 024, 600 mg): 811 µM | concentration at 840 h (600 mg, Patient 024, 600 mg): 814 µM | concentration at 842 h (600 mg, Patient 024, 600 mg): 898 µM | concentration at 843 h (600 mg, Patient 024, 600 mg): 904 µM | concentration at 844 h (600 mg, Patient 024, 600 mg): 908 µM | concentration at 864 h (600 mg, Patient 024, 600 mg): 966 µM | concentration at 2 h (750 mg, Patient 026, 750 mg): 95.8 µM | concentration at 3 h (750 mg, Patient 026, 750 mg): 125 µM | concentration at 4 h (750 mg, Patient 026, 750 mg): 149 µM | concentration at 24 h (750 mg, Patient 026, 750 mg): 200 µM | concentration at 168 h (750 mg, Patient 026, 750 mg): 186 µM | concentration at 170 h (750 mg, Patient 026, 750 mg): 270 µM | concentration at 171 h (750 mg, Patient 026, 750 mg): 301 µM | concentration at 172 h (750 mg, Patient 026, 750 mg): 339 µM | concentration at 192 h (750 mg, Patient 026, 750 mg, 192 hr (Day 9)): 398 µM | concentration at 336 h (750 mg, Patient 026, 750 mg): 352 µM | concentration at 338 h (750 mg, Patient 026, 750 mg): 399 µM | concentration at 339 h (750 mg, Patient 026, 750 mg): 506 µM | concentration at 340 h (750 mg, Patient 026, 750 mg): 492 µM | concentration at 360 h (750 mg, Patient 026, 750 mg): 625 µM | concentration at 504 h (750 mg, Patient 026, 750 mg): 479 µM | concentration at 506 h (750 mg, Patient 026, 750 mg): 625 µM | concentration at 507 h (750 mg, Patient 026, 750 mg): 546 µM | concentration at 508 h (750 mg, Patient 026, 750 mg): 582 µM | concentration at 528 h (750 mg, Patient 026, 750 mg): 608 µM | concentration at 672 h (750 mg, Patient 026, 750 mg): 594 µM | concentration at 674 h (750 mg, Patient 026, 750 mg): 606 µM | concentration at 675 h (750 mg, Patient 026, 750 mg): 655 µM | concentration at 676 h (750 mg, Patient 026, 750 mg): 698 µM | concentration at 696 h (750 mg, Patient 026, 750 mg): 732 µM | concentration at 840 h (750 mg, Patient 026, 750 mg): 728 µM | concentration at 842 h (750 mg, Patient 026, 750 mg): 824 µM | concentration at 843 h (750 mg, Patient 026, 750 mg): 776 µM | concentration at 844 h (750 mg, Patient 026, 750 mg): 822 µM | concentration at 864 h (750 mg, Patient 026, 750 mg): 812 µM | concentration at 2 h (750 mg, Patient 027, 750 mg): 110 µM | concentration at 4 h (750 mg, Patient 027, 750 mg): 224 µM | concentration at 24 h (750 mg, Patient 027, 750 mg): 199 µM
